Test results taken from patent publication US7420001B2 (Wyeth, priority 2003, dated 2008).
Counter-ions that a name gives are not always drawn.

Columns and labels:
[1] = target: T1, MMP-2 (Homo sapiens, UniProt P08253); assay: In-vitro fluorescence assay of MMP-2 activity; assay type: biochemical; conditions: recombinant human MMP-2; read-out: MMP-2 IC50
T1 construct: purchased Oncogene Research Products (Calbiochem) PF023
T1 sequence (P08253 110-660): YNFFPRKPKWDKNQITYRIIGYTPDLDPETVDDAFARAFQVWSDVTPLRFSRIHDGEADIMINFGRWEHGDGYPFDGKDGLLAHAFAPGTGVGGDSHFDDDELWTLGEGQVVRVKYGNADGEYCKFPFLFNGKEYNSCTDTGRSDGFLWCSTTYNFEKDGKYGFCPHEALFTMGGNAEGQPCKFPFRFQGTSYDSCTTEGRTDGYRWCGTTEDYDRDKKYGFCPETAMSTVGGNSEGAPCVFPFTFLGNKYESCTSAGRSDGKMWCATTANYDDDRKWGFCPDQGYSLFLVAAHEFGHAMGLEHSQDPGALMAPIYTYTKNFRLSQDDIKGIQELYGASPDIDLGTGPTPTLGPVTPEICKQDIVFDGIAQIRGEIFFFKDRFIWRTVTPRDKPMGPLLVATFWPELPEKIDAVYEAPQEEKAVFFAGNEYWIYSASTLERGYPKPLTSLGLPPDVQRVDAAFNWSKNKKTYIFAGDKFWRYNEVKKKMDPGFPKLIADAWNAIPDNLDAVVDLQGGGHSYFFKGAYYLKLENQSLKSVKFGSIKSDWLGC

[2] = target: T2, MMP-13 (Homo sapiens, UniProt P45452); assay: In-vitro fluorescence assay of MMP-13 activity; assay type: biochemical; conditions: recombinant human catalytic domain of MMP-13; read-out: MMP-13 IC50
T2 construct: made in house

Row | Structure (SMILES) | IC50 [1] [nM] | IC50 [2] [nM]
1 | Cc1c(C(=O)Nc2ccc(-c3ccc(S(=O)(=O)N[C@H](C(=O)O)C(C)C)cc3)cc2)oc2cccc(CCCO)c12 [Example 27, L-2-(4′-{[4-(3-Hydroxy-propyl)-3-methyl-benzofuran-2-carbonyl]-amino}-biphenyl-4-sulfonylamino)-3-methyl-butyric acid] | 4410 | 7.1
2 | Cc1c(C(=O)Nc2ccc(-c3ccc(S(=O)(=O)N[C@H](C(=O)O)C(C)C)cc3)cc2)oc2cccc(CCCC(C)C)c12 [Example 29, L-3-Methyl-2-(4′-{[3-methyl-4-(4-methyl-pentyl)-benzofuran-2-carbonyl]-amino}-biphenyl-4-sulfonylamino)-butyric acid] | 9320 | 37
3 | C#Cc1cccc2oc(C(=O)Nc3ccc(-c4ccc(S(=O)(=O)N[C@H](C(=O)O)C(C)C)cc4)cc3)c(C)c12 [Example 33, L-2-{4′-[(4-Ethynyl-3-methyl-benzofuran-2-carbonyl)-amino]-biphenyl-4-sulfonylamino}-3-methyl-butyric acid] | 595 | 6.1
4 | Cc1c(C(=O)Nc2ccc(-c3ccc(S(=O)(=O)N[C@H](C(=O)O)C(C)C)cc3)cc2)oc2cccc(C#CC(C)(C)C)c12 [Example 34, L-2-(4′-{[4-(3,3-Dimethyl-but-1-ynyl)-3-methyl-benzofuran-2-carbonyl]-amino}-biphenyl-4-sulfonylamino)-3-methyl-butyric acid] | 2500 | 152
5 | Cc1c(C(=O)Nc2ccc(-c3ccc(S(=O)(=O)N[C@H](C(=O)O)C(C)O)cc3)nc2)oc2cccc(NS(C)(=O)=O)c12 (stereo partly drawn) [Example 38, L-3-Hydroxy-2-(4-{5-[(4-methanesulfonylamino-3-methyl-benzofuran-2-carbonyl)-amino]-pyridin-2-yl}-benzenesulfonylamino)-butyric acid] | 8890 | 28
6 | Cc1c(C(=O)Nc2ccc(-c3ccc(S(=O)(=O)N[C@H](C(=O)O)C(C)C)cc3)nc2)oc2cccc(C#N)c12 [Example 40, L-2-(4-{5-[(4-Cyano-3-methyl-benzofuran-2-carbonyl)-amino]-pyridin-2-yl}-benzenesulfonylamino)-3-methyl-butyric acid] | 2840 | 16.2
7 | Cc1c(C(=O)Nc2ccc(-c3ccc(S(=O)(=O)N(C)[C@H](C(=O)O)C(C)C)cc3)cc2)oc2cccc(C#N)c12 [Example 42, L-2-({4′-[(4-Cyano-3-methyl-benzofuran-2-carbonyl)-amino]-biphenyl-4-sulfonyl}-methyl-amino)-3-methyl-butyric acid] | 1590 | 41
8 | CNC(=O)c1cccc2oc(C(=O)Nc3ccc(-c4ccc(S(=O)(=O)N[C@H](C(=O)O)C(C)C)cc4)cc3)c(C)c12 [Example 43A, (L-3-methyl-2-{4′-[(3-methyl-4-methylcarbamoyl-benzofuran-2-carbonyl)-amino]-biphenyl-4-sulfonylamino}-butyric acid triethylamine salt] | 6720 | 22
9 | Cc1c(C(=O)Nc2ccc(-c3ccc(S(=O)(=O)N[C@H](C(=O)O)C(C)C)cc3)cc2)oc2ccc(Br)cc12 [Example 45, 2-{4′-[(5-Bromo-3-methyl-benzofuran-2-carbonyl)-amino]-biphenyl-4-sulfonylamino}-3-methyl-butyric acid] | 81 | 3
10 | CCc1c(C(=O)Nc2ccc(-c3ccc(S(=O)(=O)N[C@H](C(=O)O)C(C)C)cc3)cc2)oc2ccccc12 [Example 58, L-2-{4′-[(3-Ethyl-benzofuran-2-carbonyl)-amino]-biphenyl-4-sulfonylamino}-3-methyl-butyric acid] | 1770 | 56

Further lines, results first:

Row | IC50 [1] [nM] | IC50 [2] [nM] | Structure (SMILES)
11 | 8000 | 24 | Cc1c(C(=O)Nc2ccc(-c3ccc(S(=O)(=O)N[C@H](C(=O)O)C(C)C)cc3)cc2)oc2cccc(CCC3CC3)c12 [Example 24, L-2-(4′-{[4-(2-Cyclopropyl-ethyl)-3-methyl-benzofuran-2-carbonyl]-amino}-biphenyl-4-sulfonylamino)-3-methyl-butyric acid]
12 | 6320 | 14 | COC/C=C\c1cccc2oc(C(=O)Nc3ccc(-c4ccc(S(=O)(=O)N[C@H](C(=O)O)C(C)C)cc4)cc3)c(C)c12 [Example 25, L-2-(4′-{[4-(3-Methoxy-Z-propenyl)-3-methyl-benzofuran-2-carbonyl]-amino}-biphenyl-4-sulfonylamino)-3-methyl-butyric acid]
13 | 3380 | 6.2 | Cc1c(C(=O)Nc2ccc(-c3ccc(S(=O)(=O)N[C@H](C(=O)O)C(C)C)cc3)cc2)oc2cccc(C#CCO)c12 [Example 26, L-2-(4′-{[4-(3-Hydroxy-prop-1-ynyl)-3-methyl-benzofuran-2-carbonyl]-amino}-biphenyl-4-sulfonylamino)-3-methyl-butyric acid]
14 | 6640 | 47 | Cc1c(C(=O)Nc2ccc(-c3ccc(S(=O)(=O)N[C@H](C(=O)O)C(C)C)cc3)cc2)oc2cccc(C#CCC(C)C)c12 [Example 28, L-3-Methyl-2-(4′-{[3-methyl-4-(4-methyl-pent-1-ynyl)-benzofuran-2-carbonyl]-amino}-biphenyl-4-sulfonylamino)-butyric acid]
15 | 3150 | 21 | Cc1c(C(=O)Nc2ccc(-c3ccc(S(=O)(=O)N[C@H](C(=O)O)C(C)C)cc3)cc2)oc2cccc(CCCN(C)C)c12 [Example 32, L-2-(4′-{[4-(3-Dimethylamino-propyl)-3-methyl-benzofuran-2-carbonyl]-animo}-biphenyl-4-sulfonylamino)-3-methyl-butyric acid]
16 | 2340 | 16 | Cc1c(C(=O)Nc2ccc(-c3ccc(S(=O)(=O)N[C@H](C(=O)O)C(C)C)cc3)cc2)oc2cccc(N(C)S(C)(=O)=O)c12 [Example 37, L-2-(4′-{[4-(Methanesulfonyl-methyl-animo)-3-methyl-benzofuran-2-carbonyl]-amino}-biphenyl-4-sulfonylamino)-3-methyl-butyric acid]
17 | 7500 | 30 | Cc1c(C(=O)Nc2ccc(-c3ccc(S(=O)(=O)N[C@H](C(=O)O)C(C)C)cc3)nc2)oc2cccc(NS(C)(=O)=O)c12 [Example 39, L-2-(4-{5-[(4-Methanesulfonylamino-3-methyl-benzofuran-2-carbonyl)-amino]-pyridin-2-yl}-benzenesulfonylamino)-3-methyl-butyric acid]
18 | 1460 | 8.5 | Cc1c(C(=O)Nc2ccc(-c3ccc(S(=O)(=O)N[C@@H](C(=O)O)C(C)C)cc3)cc2)oc2cccc(NS(C)(=O)=O)c12 [Example 41, D-2-{4-[(4-Methanesulfonylamino-3-methyl-benzofuran-2-carbonyl)-amino]-biphenyl-4-sulfonylamino}-3-methyl-butyric acid]
19 | 7770 | 18 | Cc1c(C(=O)Nc2ccc(-c3ccc(S(=O)(=O)N[C@H](C(=O)O)C(C)C)cc3)cc2)oc2cccc(C(=O)N(C)C)c12 [Example 43B, 2-{4′-[(4-dimethylcarbamoyl-3-methyl-benzofuran-2-carbonyl)-amino]-biphenyl-4-sulfonylamino}-3-methyl-butyric acid triethylamine salt]
20 | 5770 | 35 | CCC(=O)Nc1cccc2oc(C(=O)Nc3ccc(-c4ccc(S(=O)(=O)N[C@H](C(=O)O)C(C)C)cc4)cc3)c(C)c12 [Example 49, L-3-Methyl-2-{4′-[(3-methyl-4-propionylamino-benzofuran-2-carbonyl)-amino]-biphenyl-4-sulfonylamino}-butyric acid]
21 | 7710 | 45 | Cc1c(C(=O)Nc2ccc(-c3ccc(S(=O)(=O)N[C@H](C(=O)O)C(C)C)cc3)cc2)oc2cccc(NC(=O)C(C)C)c12 [Example 50, L-2-{4′-[(4-Isobutyrylamino-3-methyl-benzofuran-2-carbonyl)-amino]-biphenyl-4-sulfonylamino}-3-methyl-butyric acid]
22 | 0.4 | 0.4 | CC(C)[C@H](NS(=O)(=O)c1ccc(-c2ccc(NC(=O)c3nc4ccccc4[nH]3)cc2)cc1)C(=O)O [Example 52, L-2-{4′-[(1H-Benzoimidazole-2-carbonyl)-amino]-biphenyl-4-sulfonylamino}-3-methyl-butyric acid]
23 | 2380 | 20 | CC(=O)N(C)c1cccc2oc(C(=O)Nc3ccc(-c4ccc(S(=O)(=O)N[C@H](C(=O)O)C(C)C)cc4)cc3)c(C)c12 [Example 55, L-2-(4′-{[4-(Acetyl-methyl-amino)-3-methyl-benzofuran-2-carbonyl]-amino}-biphenyl-4-sulfonylamino)-3-methyl-butyric acid]
24 | 13300 | 13 | Cc1c(C(=O)Nc2ccc(-c3ccc(S(=O)(=O)N[C@H](C(=O)O)C(C)C)cc3)cc2)oc2cccc(-c3nn[nH]n3)c12 [Example 56, L-3-Methyl-2-(4′-{[3-methyl-4-(2H-tetrazol-5-yl)-benzofuran-2-carbonyl]-amino}-biphenyl-4-sulfonylamino)-butyric acid]
25 | 7000 | 93 | Cc1c(C(=O)Nc2ccc(-c3ccc(S(=O)(=O)N[C@H](C(=O)O)C(C)C)cc3)cc2)oc2cccc(CCC(C)(C)C)c12 [Example 57, L-2-(4′-{[^4-(3,^3-Dimethyl-butyl)-3-methyl-benzofuran-2-carbonyl]-amino}-biphenyl-4-sulfonylamino)-3-methyl-butyric acid]
